Here are results for three molecules from the NIST ThermoML archive (doi:10.1021/je060136y).

Values joined by “and” are separate entries in the source; they are usually repeats but may differ in a detail not shown here. Equal values may be shown once. Numbers after ± are expanded uncertainties.

This series is described as follows: activity coefficient (dimensionless); of the first substance listed, at infinite dilution; xn = mol fraction of the nth substance listed. As to conditions: Liquid, x1 = 0.
The mark [1] stands for this setting: 333.15 K, Rayleigh distillation method.
[2] abbreviates: 343.15 K, Rayleigh distillation method.
Where [3] appears, read: 353.15 K, Rayleigh distillation method.

On to `O=[N+]([O-])c1ccccc1` [nitrobenzene] + O, for which the activity coefficient is 2450 and 2320 under setting [1]; 2150 ± 220 under setting [2]; 1640 and 1660 under setting [3]; 1320 ± 130 (372.85 K, ciculation still method).

Consider `NC1CCCCC1` [cyclohexylamine] + O, for which the activity coefficient is, setting by setting: (298.15 K, headspace analysis) 19 ± 2; (313.15 K, headspace analysis) 29.1 ± 2.9; under setting [1], 36.7 ± 3.7; under setting [2], 44.8 ± 4.5; under setting [3], 51.2 ± 5.1; (372.65 K, circulation still method) 64.5 ± 6.5. For the setting “372.82 K, circulation still method”, the activity coefficient is 53.5 and 64.6.

On to `Nc1ccccc1` [aniline] + O, for which the activity coefficient is, setting by setting: (298.15 K, headspace analysis) 145 ± 15; under setting [1], 130 ± 13; under setting [2], 121 and 119; under setting [3], 111 ± 11; (372.47 K, ciculation still method) 92.7 ± 9.3.
